Reference: US11439707B2, “Hypocrellin derivative substituted both in a peri-position and in 2-position by amino, preparation method, and application thereof” (priority 2017, dated 2022)

Columns and labels:
[1] = absorption spectrum (maximum absorption wavelength, molar extinction coefficient); type: physicochemical
[2] = singlet oxygen efficiency test, reference rose bengal; type: physicochemical

## COc1c(O)c2c(=O)cc(OC)c3c4c(OC)cc(=O)c5c(NC6CCCC(C(=O)O)C6)c(NC6CCCC(C(=O)O)C6)c6c(c(c1C(C(C)=O)C(C)=C6)c23)c54 (stereo not drawn) [HB-15a]
[1]
  maximum absorption wavelength: 625 nm
  molar extinction coefficient: 27,000 M^−1cm^−1
[2]
  singlet oxygen yield: 25%

## CCNNc1c(O)c2c(=O)cc(OC)c3c4c(OC)cc(=O)c5c(NNCC)c(OC)c6c(c(c1C=C(C)C6C(C)=O)c23)c54 (stereo not drawn) [HB-36b]
[1]
  maximum absorption wavelength: 622 nm
  molar extinction coefficient: 31,500 M^−1cm^−1
[2]
  singlet oxygen yield: 30%

## COc1c(NCC2CCC(C(=O)OCCCC[N+](C)(C)C)CC2)c2c(=O)cc(OC)c3c4c(OC)cc(=O)c5c(O)c(NCC6CCC(C(=O)OCCCC[N+](C)(C)C)CC6)c6c(c(c1CC(C)=C6)c23)c54 (stereo not drawn) [HC-13b-C4-N^+]
[1]
  maximum absorption wavelength: 624 nm
  molar extinction coefficient: 31,500 M^−1cm^−1
[2]
  singlet oxygen yield: 36%

## COc1c(O)c2c(=O)cc(OC)c3c4c(OC)cc(=O)c5c(NCCOC(=O)N6CC(=O)NC(=O)C6)c(NCCOC(=O)N6CC(=O)NC(=O)C6)c6c(c(c1C(C(C)=O)C(C)=C6)c23)c54 (stereo not drawn) [HB-40a]
[1]
  maximum absorption wavelength: 620 nm
  molar extinction coefficient: 31,000 M^−1cm^−1
[2]
  singlet oxygen yield: 30%

## COc1c(O)c2c(=O)cc(OC)c3c4c(OC)cc(=O)c5c(NO)c(NO)c6c(c(c1CC(C)=C6)c23)c54 [HC-37a]
[1]
  maximum absorption wavelength: 620 nm
  molar extinction coefficient: 30,500 M^−1cm^−1
[2]
  singlet oxygen yield: 32%

## COCCOC(=O)C1(Nc2c(NC3(C(=O)OCCOC)CC3)c3c(=O)cc(OC)c4c5c(OC)cc(=O)c6c(O)c(OC)c7c(c(c2C=C(C)C7)c34)c65)CC1 [HC-35a-PEG1]
[1]
  maximum absorption wavelength: 622 nm
  molar extinction coefficient: 31,000 M^−1cm^−1
[2]
  singlet oxygen yield: 32%

## COCCOCCOCCOCCOC(=O)C1CCC(CNc2c3c4c5c(c(OC)c(=O)c6c(O)cc(OC)c(c7c(OC)cc(NCC8CCC(C(=O)OCCOCCOCCOCCOC)CC8)c(c2=O)c74)c65)CC(C)=C3)CC1 (stereo not drawn) [HC-13c-PEG4]
[1]
  maximum absorption wavelength: 632 nm
  molar extinction coefficient: 31,500 M^−1cm^−1
[2]
  singlet oxygen yield: 36%

## COc1c2c3c4c(c(NCCCCCC(=O)O)c(=O)c5c(NCCCCCC(=O)O)cc(OC)c(c6c(OC)cc(O)c(c1=O)c63)c54)C=C(C)C2 [HC-9c]
[1]
  maximum absorption wavelength: 628 nm
  molar extinction coefficient: 27,000 M^−1cm^−1
[2]
  singlet oxygen yield: 29%

## COc1c(NCCO)c2c(=O)cc(OC)c3c4c(OC)cc(=O)c5c(O)c(NCCO)c6c(c(c1C(C(C)=O)C(C)=C6)c23)c54 (stereo not drawn) [HB-2b]
[1]
  maximum absorption wavelength: 627 nm
  molar extinction coefficient: 31.500 M⁻¹ cm⁻¹
[2]
  singlet oxygen yield: 25%

## COc1c(NCCOCCO)c2c(=O)cc(OC)c3c4c(OC)cc(=O)c5c(O)c(NCCOCCO)c6c(c(c1C(C(C)=O)C(C)=C6)c23)c54 (stereo not drawn) [HB-1b]
[1]
  maximum absorption wavelength: 622 nm
  molar extinction coefficient: 28,000 M^−1cm^−1
[2]
  singlet oxygen yield: 36%

## COc1c2c3c4c(c(NCCO)c(=O)c5c(O)cc(OC)c(c6c(OC)cc(NCCO)c(c1=O)c63)c54)C=C(C)C2 [HC-2d]
[1]
  maximum absorption wavelength: 625 nm
  molar extinction coefficient: 28,500 M^−1cm^−1
[2]
  singlet oxygen yield: 34%

## COc1c2c3c4c(c(NC(CCC(=O)O)C(=O)O)c(=O)c5c(NC(CCC(=O)O)C(=O)O)cc(OC)c(c6c(OC)cc(O)c(c1=O)c63)c54)C=C(C)C2C(C)=O (stereo not drawn) [HB-28c]
[1]
  maximum absorption wavelength: 625 nm
  molar extinction coefficient: 21,500 M^−1cm^−1
[2]
  singlet oxygen yield: 22%

## COc1c2c3c4c(c(NCc5ccccn5)c(=O)c5c(O)cc(OC)c(c6c(OC)cc(NCc7ccccn7)c(c1=O)c63)c54)C=C(C)C2C(C)=O (stereo not drawn) [HB-38d]
[1]
  maximum absorption wavelength: 624 nm
  molar extinction coefficient: 18,500 M^−1cm^−1
[2]
  singlet oxygen yield: 17%

## COc1c(O)c2c(=O)cc(OC)c3c4c(OC)cc(=O)c5c(NCC6CCC(C(=O)O)CC6)c(NCC6CCC(C(=O)O)CC6)c6c(c(c1C(C(C)=O)C(C)=C6)c23)c54 (stereo not drawn) [HB-13a]
[1]
  maximum absorption wavelength: 621 nm
  molar extinction coefficient: 28,500 M^−1cm^−1
[2]
  singlet oxygen yield: 28%

## CCCNc1c2c3c4c(c(OC)c(=O)c5c(O)cc(OC)c(c6c(OC)cc(NCCC)c(c1=O)c63)c54)C(C(C)=O)C(C)=C2 (stereo not drawn) [HB-33c]
[1]
  maximum absorption wavelength: 618 nm
  molar extinction coefficient: 34,500 M^−1cm^−1
[2]
  singlet oxygen yield: 35%

## COCCOCCOCCOCCOCCNC(=O)C1CCC(CNc2c(O)c3c(=O)cc(OC)c4c5c(OC)cc(=O)c6c(NCC7CCC(C(=O)NCCOCCOCCOCCOCCOC)CC7)c(OC)c7c(c(c2C=C(C)C7C(C)=O)c34)c65)CC1 (stereo not drawn) [HB-13b-NH-PEG4]
[1]
  maximum absorption wavelength: 622 nm
  molar extinction coefficient: 31,000 M^−1cm^−1
[2]
  singlet oxygen yield: 34%

## COCCOC(=O)C1CCC(Nc2c(NC3CCC(C(=O)OCCOC)CC3)c3c(=O)cc(OC)c4c5c(OC)cc(=O)c6c(O)c(OC)c7c(c(c2C=C(C)C7C(C)=O)c34)c65)CC1 (stereo not drawn) [HB-14a-PEG1]
[1]
  maximum absorption wavelength: 622 nm
  molar extinction coefficient: 30,500 M^−1cm^−1
[2]
  singlet oxygen yield: 32%

## COc1c(O)c2c(=O)cc(OC)c3c4c(OC)cc(=O)c5c(NC(CS)C(=O)O)c(NC(CS)C(=O)O)c6c(c(c1C(C(C)=O)C(C)=C6)c23)c54 (stereo not drawn) [HB-25a]
[1]
  maximum absorption wavelength: 625 nm
  molar extinction coefficient: 21,500 M^−1cm^−1
[2]
  singlet oxygen yield: 18%

## COc1c2c3c4c(c(NCCOCCO)c(=O)c5c(O)cc(OC)c(c6c(OC)cc(NCCOCCO)c(c1=O)c63)c54)C=C(C)C2 [HC-1d]
[1]
  maximum absorption wavelength: 626 nm
  molar extinction coefficient: 28,500 M^−1cm^−1
[2]
  singlet oxygen yield: 32%

## COc1c2c3c4c(c(NC5CCC(O)CC5)c(=O)c5c(NC6CCC(O)CC6)cc(OC)c(c6c(OC)cc(O)c(c1=O)c63)c54)C=C(C)C2C(C)=O (stereo not drawn) [HB-17c]
[1]
  maximum absorption wavelength: 622 nm
  molar extinction coefficient: 26,000 M^−1cm^−1
[2]
  singlet oxygen yield: 23%

## COC(=O)C(CO)Nc1c(NC(CO)C(=O)OC)c2c(=O)cc(OC)c3c4c(OC)cc(=O)c5c(O)c(OC)c6c(c(c1C=C(C)C6C(C)=O)c23)c54 (stereo not drawn) [HB-24a]
[1]
  maximum absorption wavelength: 625 nm
  molar extinction coefficient: 20,500 M^−1cm^−1
[2]
  singlet oxygen yield: 20%

## COc1c2c3c4c(c(NC(CC(=O)O)C(=O)O)c(=O)c5c(NC(CC(=O)O)C(=O)O)cc(OC)c(c6c(OC)cc(O)c(c1=O)c63)c54)C=C(C)C2C(C)=O (stereo not drawn) [HB-27c]
[1]
  maximum absorption wavelength: 625 nm
  molar extinction coefficient: 21,500 M^−1cm^−1
[2]
  singlet oxygen yield: 21%

## COc1c2c3c4c(c(NCc5cccc[n+]5C)c(=O)c5c(NCc6cccc[n+]6C)cc(OC)c(c6c(OC)cc(O)c(c1=O)c63)c54)C=C(C)C2C(C)=O (stereo not drawn) [HB-38c-N^+]
[1]
  maximum absorption wavelength: 622 nm
  molar extinction coefficient: 22,500 M^−1cm^−1
[2]
  singlet oxygen yield: 21%

## COCCOCCOCCOCCOCCOCCOCCOCCOCCOCCOCCOCCOCCC(=O)OCCNc1c2c3c4c(c(OC)c(=O)c5c(O)cc(OC)c(c6c(OC)cc(NCCOC(=O)CCOCCOCCOCCOCCOCCOCCOCCOCCOCCOCCOCCOCCOC)c(c1=O)c63)c54)C(C(C)=O)C(C)=C2 (stereo not drawn) [HB-2c-PEG12]
[1]
  maximum absorption wavelength: 626 nm
  molar extinction coefficient: 32,500 M^−1cm^−1
[2]
  singlet oxygen yield: 36%

## CCNNc1c(NNCC)c2c(=O)cc(OC)c3c4c(OC)cc(=O)c5c(O)c(OC)c6c(c(c1C=C(C)C6C(C)=O)c23)c54 (stereo not drawn) [HB-36a]
[1]
  maximum absorption wavelength: 621 nm
  molar extinction coefficient: 30,500 M^−1cm^−1
[2]
  singlet oxygen yield: 32%

## COCCOCCC(=O)OCCNc1c(NCCOC(=O)CCOCCOC)c2c(=O)cc(OC)c3c4c(OC)cc(=O)c5c(O)c(OC)c6c(c(c1C=C(C)C6C(C)=O)c23)c54 (stereo not drawn) [HB-2a-PEG1]
[1]
  maximum absorption wavelength: 620 nm
  molar extinction coefficient: 30,500 M^−1cm^−1
[2]
  singlet oxygen yield: 30%

## COCCOCCOCCOCCOCCOCCOC(=O)C1CCC(Nc2c3c4c5c(c(OC)c(=O)c6c(NC7CCC(C(=O)OCCOCCOCCOCCOCCOCCOC)C7)cc(OC)c(c7c(OC)cc(O)c(c2=O)c74)c65)C(C(C)=O)C(C)=C3)C1 (stereo not drawn) [HB-19d-PEG6]
[1]
  maximum absorption wavelength: 636 nm
  molar extinction coefficient: 31,000 M^−1cm^−1
[2]
  singlet oxygen yield: 32%

## COc1c(O)c2c(=O)cc(OC)c3c4c(OC)cc(=O)c5c(NCCCC(=O)O)c(NCCCC(=O)O)c6c(c(c1CC(C)=C6)c23)c54 [HC-8a]
[1]
  maximum absorption wavelength: 620 nm
  molar extinction coefficient: 28,500 M^−1cm^−1
[2]
  singlet oxygen yield: 26%

## COc1c(NCc2cccc[n+]2C)c2c(=O)cc(OC)c3c4c(OC)cc(=O)c5c(O)c(NCc6cccc[n+]6C)c6c(c(c1C(C(C)=O)C(C)=C6)c23)c54 (stereo not drawn) [HB-38b-N^+]
[1]
  maximum absorption wavelength: 620 nm
  molar extinction coefficient: 21,000 M^−1cm^−1
[2]
  singlet oxygen yield: 20%

## COCCOCCOCCOCCOCCOCCOCCC(=O)OCCOCCNc1c(O)c2c(=O)cc(OC)c3c4c(OC)cc(=O)c5c(NCCOCCOC(=O)CCOCCOCCOCCOCCOCCOCCOC)c(OC)c6c(c(c1C=C(C)C6C(C)=O)c23)c54 (stereo not drawn) [HB-1b-PEG6]
[1]
  maximum absorption wavelength: 622 nm
  molar extinction coefficient: 30,000 M^−1cm^−1
[2]
  singlet oxygen yield: 32%

## COCCOCCNC(=O)C1CCC(CNc2c(NCC3CCC(C(=O)NCCOCCOC)CC3)c3c(=O)cc(OC)c4c5c(OC)cc(=O)c6c(O)c(OC)c7c(c(c2C=C(C)C7C(C)=O)c34)c65)CC1 (stereo not drawn) [HB-13a-NH-PEG1]
[1]
  maximum absorption wavelength: 624 nm
  molar extinction coefficient: 31,000 M^−1cm^−1
[2]
  singlet oxygen yield: 32%

## COc1c(O)c2c(=O)cc(OC)c3c4c(OC)cc(=O)c5c(NC6CCC(C(=O)O)C6)c(NC6CCC(C(=O)O)C6)c6c(c(c1C(C(C)=O)C(C)=C6)c23)c54 (stereo not drawn) [HB-19a]
[1]
  maximum absorption wavelength: 621 nm
  molar extinction coefficient: 25,500 M^−1cm^−1
[2]
  singlet oxygen yield: 21%

## COc1c2c3c4c(c(NCC5CCC(C(=O)NCCCCCCS(=O)(=O)O)CC5)c(=O)c5c(NCC6CCC(C(=O)NCCCCCCS(=O)(=O)O)CC6)cc(OC)c(c6c(OC)cc(O)c(c1=O)c63)c54)C=C(C)C2 (stereo not drawn) [HC-13c-C6-SO3H]
[1]
  maximum absorption wavelength: 630 nm
  molar extinction coefficient: 33,000 M^−1cm^−1
[2]
  singlet oxygen yield: 36%

## COc1c(NCCCC(=O)O)c2c(=O)cc(OC)c3c4c(OC)cc(=O)c5c(O)c(NCCCC(=O)O)c6c(c(c1CC(C)=C6)c23)c54 [HC-8b]
[1]
  maximum absorption wavelength: 622 nm
  molar extinction coefficient: 28,000 M^−1cm^−1
[2]
  singlet oxygen yield: 25%
